Assay results: patent US9789111B2, “Casein kinase 1δ (CK 1δ) inhibitors” (Electrophoretics Limited, priority 2010, dated 2017)

Assays:
CK1δ = target: T1, CK1δ (Homo sapiens, UniProt P48730); test: CK1δ inhibition assay (33P-ATP, CK1tide substrate); assay type: biochemical; settings: range of kinase inhibition assays
T1 construct: Recombinant human full-length construct; GST; host or cells: insect cells
T1 sequence (P48730 1-409 isoform P48730-2): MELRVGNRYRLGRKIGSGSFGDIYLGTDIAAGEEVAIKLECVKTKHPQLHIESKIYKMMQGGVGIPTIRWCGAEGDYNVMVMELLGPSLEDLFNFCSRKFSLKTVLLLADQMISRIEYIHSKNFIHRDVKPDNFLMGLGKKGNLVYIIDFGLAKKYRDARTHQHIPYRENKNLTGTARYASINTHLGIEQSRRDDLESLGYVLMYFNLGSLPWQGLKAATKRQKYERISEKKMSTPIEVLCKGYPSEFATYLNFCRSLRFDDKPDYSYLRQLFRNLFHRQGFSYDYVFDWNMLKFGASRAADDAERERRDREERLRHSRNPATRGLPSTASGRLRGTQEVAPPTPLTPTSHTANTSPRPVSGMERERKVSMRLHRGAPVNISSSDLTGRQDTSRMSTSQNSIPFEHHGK
Method: The compounds of the invention may be tested for inhibition of casein kinase 1 delta (CK1δ) in accordance with the assay protocols described in US 2010/0152157, EP 1,636,375 or Hanger et al (2007) J. Biol. Chem. 282, 23645-23654. In particular, the assay was conducted in accordance with the following protocol:
Base Reaction buffer; 20 mM Hepes (pH 7.5), 10 mM MgCl2, 1 mM EGTA, 0.02% Brij35, 0.02 mg/ml BSA, 0.1 mM Na3VO4, 2 mM DTT, 1% DMSO
It should be noted that required cofactors are added individually to each kinase reaction.
• 1. Prepare indicated substrate in freshly prepared Base Reaction Buffer as described above • 2. Deliver any required cofactors to the substrate solution • 3. Deliver indicated kinase into the substrate solution and gently mix • 4. Deliver compounds in DMSO into the kinase reaction mixture • 5. Deliver ^33P-ATP (specific activity 0.01 μCi/μl final) into the reaction mixture to initiate the reaction • 6. Incubate kinase reaction for 120 min. at room temperature • 7. Reactions are spotted onto P81 ion exchange paper (Whatman #3698-915) • 8. Wash filters extensively in 0.75% Phosphoric acid Kinase Information: • CK1δ—Genbank Accession # NP_620693 • Recombinant human full-length construct. GST-tagged, expressed in insect cells. • Final concentration in assay=4 nM • Substrate: CK1tide • Substrate sequence: [KRRRAL[pS]VASLPGL] • Final substrate concentration in assay=20 μM • It should be noted that no additional cofactors are added to the reaction mixture.

CLK2 = CLK2 (Homo sapiens, UniProt P49760); test: kinase inhibition assay panel; assay type: biochemical
Chain of CLK2 (P49760 whole entry, species assumed): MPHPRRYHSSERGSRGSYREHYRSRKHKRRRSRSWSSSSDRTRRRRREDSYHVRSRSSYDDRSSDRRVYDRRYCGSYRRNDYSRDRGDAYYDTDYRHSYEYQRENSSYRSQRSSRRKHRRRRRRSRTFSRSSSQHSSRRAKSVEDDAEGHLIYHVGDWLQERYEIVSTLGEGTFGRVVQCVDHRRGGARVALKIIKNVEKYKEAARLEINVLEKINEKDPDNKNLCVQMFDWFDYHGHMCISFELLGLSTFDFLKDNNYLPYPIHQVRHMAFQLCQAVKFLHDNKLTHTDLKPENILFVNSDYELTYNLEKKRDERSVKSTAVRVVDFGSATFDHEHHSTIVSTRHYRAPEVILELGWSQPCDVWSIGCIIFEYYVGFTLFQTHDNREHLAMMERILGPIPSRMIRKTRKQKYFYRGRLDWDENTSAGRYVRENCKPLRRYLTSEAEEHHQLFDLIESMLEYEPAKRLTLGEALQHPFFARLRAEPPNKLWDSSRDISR

FGFR1 = FGFR1 (Homo sapiens, UniProt P11362); test: kinase inhibition assay panel; assay type: biochemical
Chain of FGFR1 (P11362 22-822, species assumed): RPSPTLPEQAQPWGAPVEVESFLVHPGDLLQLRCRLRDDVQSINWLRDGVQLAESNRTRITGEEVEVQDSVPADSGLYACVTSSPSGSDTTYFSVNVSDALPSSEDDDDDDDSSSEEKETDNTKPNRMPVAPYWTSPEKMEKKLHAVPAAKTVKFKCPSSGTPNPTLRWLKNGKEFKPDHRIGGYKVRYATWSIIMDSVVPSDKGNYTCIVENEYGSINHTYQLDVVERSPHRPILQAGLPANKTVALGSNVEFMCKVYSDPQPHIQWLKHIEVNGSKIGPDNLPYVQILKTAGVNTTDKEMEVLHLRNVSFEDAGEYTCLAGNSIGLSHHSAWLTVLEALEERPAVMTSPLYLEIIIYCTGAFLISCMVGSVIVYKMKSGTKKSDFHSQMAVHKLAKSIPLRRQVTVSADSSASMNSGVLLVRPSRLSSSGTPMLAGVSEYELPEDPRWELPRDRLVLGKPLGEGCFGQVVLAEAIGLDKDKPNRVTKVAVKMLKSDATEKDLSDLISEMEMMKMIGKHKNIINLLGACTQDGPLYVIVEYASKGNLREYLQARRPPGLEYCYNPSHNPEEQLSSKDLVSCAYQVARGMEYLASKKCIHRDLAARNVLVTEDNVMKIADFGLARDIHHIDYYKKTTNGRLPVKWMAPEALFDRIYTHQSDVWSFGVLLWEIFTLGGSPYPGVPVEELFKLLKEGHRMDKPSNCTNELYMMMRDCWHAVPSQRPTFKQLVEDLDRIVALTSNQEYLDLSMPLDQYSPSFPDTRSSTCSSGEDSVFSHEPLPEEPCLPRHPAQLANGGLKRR

[1] = test system: Tau phosphorylated at Threonine 231 in SH-SY5Y-TMHT cells; test: Western Blot of Tau phosphorylated at Threonine 231; assay type: cell-based, human; settings: for detectable level of pT231 in Tau protein: 10 μM, Western Blot; for phosphorylation of Thr 231 within Tau proteins: FIG. 5
Method: SH-SY5Y-TMHT cells are kept in culture medium (DMEM medium, 10% FCS, 1% NEAA, 1% L-Glutamine, 100 μg/ml Gentamycin, 300 μg/ml Geneticin G-418) for 2 days until 80-90% confluency. Cells are then differentiated in culture medium supplemented with 10 μM retinoic acid (RA) for 7 days changing medium every 2 to 3 days. Differentiated cells are seeded onto 6-well plates and 96-well plates at a cell density of 1.25×10^6 and 8×10^5 cells per well, respectively. On day 8 post-differentiation, the test compounds, reference compounds and vehicle control were added to the culture medium. After 6 h of compound exposure one plate of cells is subjected to a MTT assay to evaluate the effect of test and reference items on cell viability. Remaining wells are washed once with cold PBS and harvested in 300 μl RIPA-Buffer [50 mM Tris pH 7.4, 1% Nonident P40, 0.25% Na-deoxy-cholate, 150 mM NaCl, 1 mM EDTA, 1 μM NaF, 1 μM Na-ortho-vanadate, 80 mM Glycerophosphate, supplemented with freshly added protease (Calbiochem) and phosphatase (Sigma) inhibitor cocktail]. The cell suspension is transferred into a 1.5 ml tube and additionally lysed by sonication on ice. An aliquot of 20 μl is taken for the determination of the protein concentration (BCA assay). Subsequently, the lysates are snap frozen and stored at −80° C. until shipment.
Lysates of treated cells were prepared in Laemmli buffer and 10 μg loaded into each lane of a 10% Nu-PAGE gel (Invitrogen, UK). Samples were run until the coomassie blue dye fromt was within 1 cm of the bottom of the gel. The separated proteins were transferred onto nitrocellulose and blots developed using antibodies specific for total tau (Polyclonal Rabbit Anti-Human Tau, Dako, UK (cat # A0024)) and phopho-Threonine 231 (Tau (Phospho-Thr231) Antibody, Signalway Antibody, USA (cat # 11110)) respectively. In each case the bound antibody was detected using ECL Rabbit IgG, HRP-Linked (from donkey) (GE Healthcare, UK (cat # NA934))

Compound | selectivity for CK1δ when compared with other kinases (CK1δ) | inhibition of CLK2 (CLK2) | inhibition of FGFR1 (FGFR1) | detectable level of pT231 in Tau protein [1] | phosphorylation of Thr 231 within Tau proteins [1]
Nc1ncc(-c2nc3ccccc3o2)c(-c2ccncc2)n1 [Compound 324, 5-(1,3-benzoxazol-2-yl)-4-(pyridin-4-yl)pyrimidin-2-amine] | significant and selective inhibition for CK1δ | lower than 40% | lower than 40% | reduced the detectable level of pT231 | inhibit phosphorylation
NC(=O)c1c(N)c(C(=O)c2ccc(F)cc2)n2ccccc12 [Compound 987, 2-amino-3-[(4-fluorophenyl)carbonyl]indolizine-1-carboxamide] | significant and selective inhibition for CK1δ | lower than 40% | lower than 40% | reduced the detectable level of pT231 | inhibit phosphorylation
